Columns and labels:
Format in all cases: in vivo
[1] = system: canola seedlings; assay: Soil drench treatment on canola seedlings (perlite); details: for Mean Stem Length: 10 days after germination, measured 10 days following drench
Procedure: (§1) Sample soil drench treatments were prepared by dissolving […], 3.19 mg, or 3.99 mg of BAG8 in 67.5 mL of acetone in separate vials. Each vial was then added to 202.5 mL of water and shaken vigorously to produce a suitable sample for soil drench treatment at rates of 75 g/A, 100 g/A, and 125 g/A, respectively.
(§2) Canola seeds were sown into pots filled with perlite growth medium and allowed to germinate under normal glass house conditions. 10 days after germination the pots were drenched with the respective BAG8 solutions. 10 days following the drench, stem lengths were measured. Analysis of variance was used to examine stem length data and means were separated using Fisher's least significant difference at α=0.05.

[2] = system: broccoli; assay: Soil drench growth enhancing effect, broccoli; details: for Average Dry Matter Weight / Average Root Length / Average Shoot Height: 4 treatments every 14 days, 14 days after final treatment
Procedure: (§3) Boron-containing compounds/compositions were applied directly to the soil, and the growth of plants was measured. An exemplary embodiment of a benzoxaborole compound includes 5-chlorobenzo[c][1,2]oxaborol-1(3H)-ol, which may be referred to herein as BAG8.
(§4) Eight 2-gallon pots were filled with steamed soil for each of the five treatments listed below:
(§5) 3-4 seeds were planted into each pot at a depth of 1 inch and covered. All seedlings were subjected to 16 hours of daylight at ˜800 μmol/m^2/second (light intensity) provided by cool-white fluorescent lamps. Daytime temperatures were ˜25° C. and were dropped to ˜18° C. at night.
(§6) Solutions were prepared by first dissolving the appropriate amount of benzoxaborole in ethanol or acetone then adding to distilled water. 100 mL of treatment was applied to each pot in a circular motion to evenly coat the surface of the soil. These treatments were applied every 14 days for a total of 4 treatments, including the at-planting treatment. Each pot was monitored, and 50 mL of distilled water was added to each pot when soil was dry.
(§7) Germination and shoot height data were recorded every seven days. 14 days after the final treatment application, plants were carefully removed from each pot and final shoot length, root length, and dry matter weight were recorded.
(§8) This experiment was conducted on red table beet, broccoli, snow pea, turnips, and spring wheat.

[3] = system: snow pea; assay: Soil drench growth enhancing effect, snow pea; details: for growth effect compared to untreated control: soil drench; for Average Dry Matter Weight / Average Root Length / Average Shoot Height: 4 treatments every 14 days, 14 days after final treatment
Procedure: as §3, §4, §5, §6, §7, §8

[4] = system: red table beet; assay: Soil drench growth enhancing effect, red table beet; details: for Average Dry Matter Weight / Average Root Length / Average Shoot Height: 4 treatments every 14 days, 14 days after final treatment
Procedure: as §3, §4, §5, §6, §7, §8

[5] = system: soybean seedlings; assay: Soil drench treatment on soybean seedlings (perlite); details: for Mean Root Length: 10 days after germination, measured 10 days following drench
Procedure: as §1
as §2, with “Soybean seeds” for “Canola seeds”, “drench, root” for “drench, stem”

[6] = treatment B, 0.12 lb/A soil drench
[7] = treatment C, 0.25 lb/A soil drench
[8] = treatment D, 0.35 lb/A soil drench
[9] = treatment E, 0.60 lb/A soil drench

OB1OCc2cc(Cl)ccc21 [BAG8, 5-chlorobenzo[c][1,2]oxaborol-1(3H)-ol]
increased root length ([1]; all tested application rates, soil drench, canola seedlings): 19-65% | Mean Stem Length ([1]; soil drench 75 g ai/A): 39.2 mm | Mean Stem Length ([1]; soil drench 100 g ai/A): 33.8 mm | Mean Stem Length ([1]; soil drench 125 g ai/A): 47.1 mm | root length and dry matter weight compared with untreated control ([2]; all rates (0.12-0.60 lb/A), soil drench): longer roots and greater dry matter weight than the untreated control | treatment effect on average shoot height ([2]; all rates, soil drench): no treatment effect was present | Average Dry Matter Weight [2, 6]: 10.70 mg | Average Root Length [2, 6]: 5.60 cm | Average Shoot Height [2, 6]: 4.50 cm | Average Dry Matter Weight [2, 7]: 11.10 mg | Average Root Length [2, 7]: 5.20 cm | Average Shoot Height [2, 7]: 4.40 cm | Average Dry Matter Weight [2, 8]: 11.30 mg | Average Root Length [2, 8]: 5.30 cm | Average Shoot Height [2, 8]: 4.90 cm | Average Dry Matter Weight [2, 9]: 13.00 mg | Average Root Length [2, 9]: 6.50 cm | Average Shoot Height [2, 9]: 4.50 cm | growth effect compared to untreated control ([3]; 0.25 pounds per acre): increased the shoot height, root length, and dry matter weight | growth effect compared to untreated control ([3]; rates other than 0.25 pounds per acre): does not increase average shoot height, average root length, or average dry matter weight | Average Dry Matter Weight [3, 6]: 102.70 mg | Average Root Length [3, 6]: 7.10 cm | Average Shoot Height [3, 6]: 6.90 cm | Average Dry Matter Weight [3, 7]: 280.10 mg | Average Root Length [3, 7]: 12.10 cm | Average Shoot Height [3, 7]: 13.10 cm | Average Dry Matter Weight [3, 8]: 185.70 mg | Average Root Length [3, 8]: 8.00 cm | Average Shoot Height [3, 8]: 9.40 cm | Average Dry Matter Weight [3, 9]: 130.90 mg | Average Root Length [3, 9]: 7.90 cm | Average Shoot Height [3, 9]: 6.50 cm | growth effect compared with untreated control ([4]; all application rates (0.12-0.60 lb/A), soil drench): longer shoots, longer roots, and greater dry matter weight than the untreated control | Average Dry Matter Weight [4, 6]: 10.70 mg | Average Root Length [4, 6]: 4.50 cm | Average Shoot Height [4, 6]: 3.33 cm | Average Dry Matter Weight [4, 7]: 11.10 mg | Average Root Length [4, 7]: 5.98 cm | Average Shoot Height [4, 7]: 4.24 cm | Average Dry Matter Weight [4, 8]: 11.30 mg | Average Root Length [4, 8]: 5.56 cm | Average Shoot Height [4, 8]: 4.09 cm | Average Dry Matter Weight [4, 9]: 13.00 mg | Average Root Length [4, 9]: 5.15 cm | Average Shoot Height [4, 9]: 5.01 cm | increased root length ([5]; all tested application rates, soil drench, soybean seedlings (Table 12)): 6-27% | Mean Root Length ([5]; soil drench 75 g ai/A): 329.5 mm | Mean Root Length ([5]; soil drench 100 g ai/A): 275.8 mm | Mean Root Length ([5]; soil drench 125 g ai/A): 309.7 mm
